As usually defined, the IC50 is the concentration needed to halve the response being measured.

The values below come from US10538554B2, “Peptides and uses therefor as antiviral agents” (priority 2015, dated 2020).

Like-named read-outs stand apart in the source and are kept apart here. Bridge positions count the residues as written; N and C are the ends. Square brackets hold non-standard residues; d marks the D form. Peptide text beside a SMILES is read from it. Some results are limits rather than exact numbers.

Assay [1] deals with H1N1 A/PR/8/1934. Nature of the assay: microbe, parasite or virus in culture. As to conditions: Influenza A virus, MDCK, read-out: IC50 PR8.
Assay [2] has as its system H9N2 A/Iran/16/2000. The note with it: 48 h.
The subject of assay [3] is avian influenza A virus H9N2. As to conditions: cited from earlier work.
For assay [4], the system named is H1N1 A1/Malaysia/302/1954. The note with it: A1/Malaysia/302/1954, 48 h.
The test system of assay [5] is H3N8 A/Miami/2/63. The note with it: A/Miami/2/63, 48 h.
For assay [6], the system named is H3N2 A/HK/8/1968. As to conditions: A/HK/8/1968, 48 h.
Assay [7] has as its system H1N1 A/NY/18/2009. As to conditions: A/NY/18/2009, 48 h.
Assay [8] has as its system H1N1 A/PR/8/1934. As to conditions: A/PR/8/1934, 48 h.
In assay [9] the test system is H5N1 A/Kampung pasir/5744/2004. As to conditions: A/Kampung pasir/5744/2004, 48 h.

Regarding `CCC(CC)O[C@@H]1C=C(C(=O)O)C[C@H](N)[C@H]1NC(C)=O` [Oseltamivir acid], the IC50 in [1] amounted to 140 nM.
In [2], `C[C@@H](O)[C@@H]1NC(=O)[C@H](CCCCN)NC(=O)[C@H](CO)NC(=O)[C@H](CCCNC(=N)N)NC(=O)[C@H](Cc2ccccc2)NC(=O)[C@H](CC(=O)O)NC(=O)[C@H](CC(N)=O)NC(=O)[C@@H](N)CSSC[C@@H](C(=O)O)NC1=O` [C-P1, H-CNDFRSKTC-OH, reference compound] (H-CNDFRSKTC-OH; disulfide 1-9) returned an IC50 of more than 320000 nM. Moreover, in assay [3], the “inhibition of avian influenza A virus H9N2 replication” value was “modest efficacy”.
On to `CC[C@@H](C)[C@H]1NC(=O)[C@@H](Cc2ccccc2)NC(=O)[C@@H](Cc2ccccc2)NC(=O)[C@@H](Cc2ccccc2)NC(=O)[C@@H](Cc2c[nH]c3ccccc23)NC(=O)[C@@H]([C@H](C)O)NC(=O)[C@H](NC(=O)[C@H](CCCCN)NC(=O)[C@H](CCCCN)NC(=O)[C@H](CCCNC(=N)N)NC(=O)[C@@H](N)CCCNC(=N)N)CSSC[C@H](C(=O)O)NC(=O)[C@@H](CC(N)=O)NC1=O` [PSP IV A5, H-RRKKctwfffinc-OH] (H-RRKK[dC][dT][dW][dF][dF][dF][dI][dN][dC]-OH; disulfide 5-13), for which the IC50 was determined as 760 nM in [2]; 300 nM in [4]; 300 nM in assay [5]; 300 nM in assay [6]; 1000 nM in assay [7]; 400 nM in assay [8]. In assay [9], this compound returned a concentration for half-maximal inhibition (IC50) of 550 nM. The “% inhibition H9N2” value in assay [2] (10 μM) is on record as 93%. Further, the “% inhibition H1N1” value in [4] (10 μM) was 99%. Also, the “% inhibition H3N8” value in assay [5] (10 μM) was determined as 98%. Besides, the “% inhibition H3N2” value in assay [6] (10 μM) is 99%. Besides, in assay [7] (10 μM), the “% Inhibition Pdm 2009” value is recorded as 98%. Also, the “% Inhibition PR/8” value in assay [8] (10 μM) was 99%.
